≈ marks a conversion by molar mass, not a printed value. Read-outs that look alike come from different tables or passages of the source.
Assays:
[1] = test system: C. parapsilosis; assay: Antifungal Activity Assay (broth microtiter MIC), C. parapsilosis; format: cell-based, Candida parapsilosis; conditions: 3 replicates, MIC recorded at 48 h; for MIC: Lodderomyces parapsilosis, ATCC22019, 48 h, ATCC 22019, read-out: MIC, C. parapsilosis ATCC 22019
Description: (§1) Compounds of the present invention were evaluated in an Antifungal Activity Assay. An exemplary procedure for the assay, which measures the susceptibility of various Candida species to antifungal compounds, follows. Compounds to be tested (including fluconazole and amphotericin B) were dissolved in DMSO to obtain a solution having a concentration of 1 mg/mL. These stock solutions were sterile filtered using a 0.22 um nylon syringe filter, then diluted in sterile water to achieve a final concentration of 128 μg/mL.
(§2) All species were grown from frozen stock by directly plating on to freshly prepared Sabouraud Dextrose agar (BD, Difco) and incubated overnight in ambient air at 35° C. for 24 h. A direct suspension was prepared in RPMI 1640+MOPS (Lonza, Biowhittaker) by taking individual colonies from the overnight cultures using sterile swabs soaked in sterile saline. The concentration of the suspension was determined using pre-determined standard curves. These suspensions were then diluted down to 5×10^3 CFU/mL to achieve a final concentration of 2.5×10^3 CFU/mL once added to the microtiter plate as per CLSI guidelines (M27-A3, Vol. 28 No. 14).
(§3) Broth microtiter MIC challenge plates were prepared following CLSI guidelines (M27-A3, Vol. 28 No. 14). The original CLSI guidelines focused on reading Candida MICs after 48 h of incubation. As reading after only 24 h offers a clear advantage of patient care, QC limits are being established for all drugs at 24 h. That being said there are no known interpretive breakpoints for amphotericin B at 24 h and the current fluconazole interpretive breakpoints are based on a 48 h reading. The MICs for the test compounds were recorded at 48 h. All MIC determinations were achieved by visually comparing the growth found in the antibiotic challenged wells to that of the growth control.

[2] = target: fungal (fACC2) (UniProt Q00955); conditions: read-out: fACC2 (in vitro ACC2 Inhibition Assay, IC50), ADP-Glo, 5 nM ACC2, 20 μM ATP, 20 μM acetyl-CoA
Chain of fungal (fACC2) (Q00955 whole entry): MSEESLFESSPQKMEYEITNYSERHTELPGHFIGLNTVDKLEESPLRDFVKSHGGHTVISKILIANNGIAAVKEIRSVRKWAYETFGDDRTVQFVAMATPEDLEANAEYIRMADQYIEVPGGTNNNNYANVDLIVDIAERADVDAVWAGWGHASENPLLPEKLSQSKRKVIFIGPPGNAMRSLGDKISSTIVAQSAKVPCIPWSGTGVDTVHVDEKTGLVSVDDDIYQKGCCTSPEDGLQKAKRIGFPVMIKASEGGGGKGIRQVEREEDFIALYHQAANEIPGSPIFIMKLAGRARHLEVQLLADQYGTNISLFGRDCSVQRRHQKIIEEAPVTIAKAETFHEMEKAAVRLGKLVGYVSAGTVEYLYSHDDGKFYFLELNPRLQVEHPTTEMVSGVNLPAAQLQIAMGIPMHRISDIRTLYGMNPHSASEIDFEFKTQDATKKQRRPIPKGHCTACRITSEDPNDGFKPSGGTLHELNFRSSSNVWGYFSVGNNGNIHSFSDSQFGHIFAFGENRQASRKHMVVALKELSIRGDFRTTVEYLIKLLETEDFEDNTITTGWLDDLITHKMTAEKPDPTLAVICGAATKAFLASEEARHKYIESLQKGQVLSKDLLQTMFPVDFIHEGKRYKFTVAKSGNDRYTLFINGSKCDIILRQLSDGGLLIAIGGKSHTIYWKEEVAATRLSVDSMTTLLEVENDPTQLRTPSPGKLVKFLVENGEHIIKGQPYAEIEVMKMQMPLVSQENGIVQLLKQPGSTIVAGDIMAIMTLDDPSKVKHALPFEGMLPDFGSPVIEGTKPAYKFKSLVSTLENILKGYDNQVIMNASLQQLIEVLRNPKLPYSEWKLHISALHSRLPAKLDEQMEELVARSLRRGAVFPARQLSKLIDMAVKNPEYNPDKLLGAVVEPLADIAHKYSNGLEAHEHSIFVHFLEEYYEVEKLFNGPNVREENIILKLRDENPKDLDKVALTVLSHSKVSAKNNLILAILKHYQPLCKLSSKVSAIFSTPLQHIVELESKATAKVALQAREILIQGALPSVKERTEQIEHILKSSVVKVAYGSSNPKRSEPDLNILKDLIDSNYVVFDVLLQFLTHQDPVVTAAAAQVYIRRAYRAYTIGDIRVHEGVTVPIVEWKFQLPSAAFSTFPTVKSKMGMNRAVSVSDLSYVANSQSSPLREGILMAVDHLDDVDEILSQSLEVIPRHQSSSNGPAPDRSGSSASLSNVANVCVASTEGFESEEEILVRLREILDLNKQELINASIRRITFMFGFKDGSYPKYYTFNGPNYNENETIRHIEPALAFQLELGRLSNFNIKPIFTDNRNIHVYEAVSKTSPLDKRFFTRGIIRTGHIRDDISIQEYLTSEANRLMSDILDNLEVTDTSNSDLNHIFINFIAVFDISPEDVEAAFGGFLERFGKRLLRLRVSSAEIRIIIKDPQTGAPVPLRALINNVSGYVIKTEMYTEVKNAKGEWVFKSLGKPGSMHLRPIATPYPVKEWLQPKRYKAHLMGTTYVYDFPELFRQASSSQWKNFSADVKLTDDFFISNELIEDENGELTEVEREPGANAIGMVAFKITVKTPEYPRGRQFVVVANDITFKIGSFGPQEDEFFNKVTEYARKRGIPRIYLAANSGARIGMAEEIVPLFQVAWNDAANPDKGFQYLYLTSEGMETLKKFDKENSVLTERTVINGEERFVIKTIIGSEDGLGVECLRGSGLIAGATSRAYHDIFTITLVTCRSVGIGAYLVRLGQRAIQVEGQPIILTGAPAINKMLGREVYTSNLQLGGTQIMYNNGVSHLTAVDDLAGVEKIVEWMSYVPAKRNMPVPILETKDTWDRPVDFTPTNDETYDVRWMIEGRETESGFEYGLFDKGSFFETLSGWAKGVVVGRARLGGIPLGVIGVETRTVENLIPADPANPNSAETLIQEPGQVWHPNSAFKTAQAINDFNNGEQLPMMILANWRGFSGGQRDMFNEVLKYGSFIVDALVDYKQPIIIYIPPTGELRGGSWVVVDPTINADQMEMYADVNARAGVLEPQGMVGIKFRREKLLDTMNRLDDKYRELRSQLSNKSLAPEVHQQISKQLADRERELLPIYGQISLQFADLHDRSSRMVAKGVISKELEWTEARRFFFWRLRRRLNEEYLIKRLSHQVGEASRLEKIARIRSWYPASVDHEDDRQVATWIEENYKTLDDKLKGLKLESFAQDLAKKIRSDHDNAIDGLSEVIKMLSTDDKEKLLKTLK

[3] = target: human (hACC2) (Homo sapiens, UniProt O00763); assay: In vitro ACC inhibition assay (ADP-Glo), hACC2; format: biochemical; conditions: 5 nM ACC2, 20 μM ATP, 20 μM acetyl-CoA
Chain of human (hACC2) (O00763 whole entry): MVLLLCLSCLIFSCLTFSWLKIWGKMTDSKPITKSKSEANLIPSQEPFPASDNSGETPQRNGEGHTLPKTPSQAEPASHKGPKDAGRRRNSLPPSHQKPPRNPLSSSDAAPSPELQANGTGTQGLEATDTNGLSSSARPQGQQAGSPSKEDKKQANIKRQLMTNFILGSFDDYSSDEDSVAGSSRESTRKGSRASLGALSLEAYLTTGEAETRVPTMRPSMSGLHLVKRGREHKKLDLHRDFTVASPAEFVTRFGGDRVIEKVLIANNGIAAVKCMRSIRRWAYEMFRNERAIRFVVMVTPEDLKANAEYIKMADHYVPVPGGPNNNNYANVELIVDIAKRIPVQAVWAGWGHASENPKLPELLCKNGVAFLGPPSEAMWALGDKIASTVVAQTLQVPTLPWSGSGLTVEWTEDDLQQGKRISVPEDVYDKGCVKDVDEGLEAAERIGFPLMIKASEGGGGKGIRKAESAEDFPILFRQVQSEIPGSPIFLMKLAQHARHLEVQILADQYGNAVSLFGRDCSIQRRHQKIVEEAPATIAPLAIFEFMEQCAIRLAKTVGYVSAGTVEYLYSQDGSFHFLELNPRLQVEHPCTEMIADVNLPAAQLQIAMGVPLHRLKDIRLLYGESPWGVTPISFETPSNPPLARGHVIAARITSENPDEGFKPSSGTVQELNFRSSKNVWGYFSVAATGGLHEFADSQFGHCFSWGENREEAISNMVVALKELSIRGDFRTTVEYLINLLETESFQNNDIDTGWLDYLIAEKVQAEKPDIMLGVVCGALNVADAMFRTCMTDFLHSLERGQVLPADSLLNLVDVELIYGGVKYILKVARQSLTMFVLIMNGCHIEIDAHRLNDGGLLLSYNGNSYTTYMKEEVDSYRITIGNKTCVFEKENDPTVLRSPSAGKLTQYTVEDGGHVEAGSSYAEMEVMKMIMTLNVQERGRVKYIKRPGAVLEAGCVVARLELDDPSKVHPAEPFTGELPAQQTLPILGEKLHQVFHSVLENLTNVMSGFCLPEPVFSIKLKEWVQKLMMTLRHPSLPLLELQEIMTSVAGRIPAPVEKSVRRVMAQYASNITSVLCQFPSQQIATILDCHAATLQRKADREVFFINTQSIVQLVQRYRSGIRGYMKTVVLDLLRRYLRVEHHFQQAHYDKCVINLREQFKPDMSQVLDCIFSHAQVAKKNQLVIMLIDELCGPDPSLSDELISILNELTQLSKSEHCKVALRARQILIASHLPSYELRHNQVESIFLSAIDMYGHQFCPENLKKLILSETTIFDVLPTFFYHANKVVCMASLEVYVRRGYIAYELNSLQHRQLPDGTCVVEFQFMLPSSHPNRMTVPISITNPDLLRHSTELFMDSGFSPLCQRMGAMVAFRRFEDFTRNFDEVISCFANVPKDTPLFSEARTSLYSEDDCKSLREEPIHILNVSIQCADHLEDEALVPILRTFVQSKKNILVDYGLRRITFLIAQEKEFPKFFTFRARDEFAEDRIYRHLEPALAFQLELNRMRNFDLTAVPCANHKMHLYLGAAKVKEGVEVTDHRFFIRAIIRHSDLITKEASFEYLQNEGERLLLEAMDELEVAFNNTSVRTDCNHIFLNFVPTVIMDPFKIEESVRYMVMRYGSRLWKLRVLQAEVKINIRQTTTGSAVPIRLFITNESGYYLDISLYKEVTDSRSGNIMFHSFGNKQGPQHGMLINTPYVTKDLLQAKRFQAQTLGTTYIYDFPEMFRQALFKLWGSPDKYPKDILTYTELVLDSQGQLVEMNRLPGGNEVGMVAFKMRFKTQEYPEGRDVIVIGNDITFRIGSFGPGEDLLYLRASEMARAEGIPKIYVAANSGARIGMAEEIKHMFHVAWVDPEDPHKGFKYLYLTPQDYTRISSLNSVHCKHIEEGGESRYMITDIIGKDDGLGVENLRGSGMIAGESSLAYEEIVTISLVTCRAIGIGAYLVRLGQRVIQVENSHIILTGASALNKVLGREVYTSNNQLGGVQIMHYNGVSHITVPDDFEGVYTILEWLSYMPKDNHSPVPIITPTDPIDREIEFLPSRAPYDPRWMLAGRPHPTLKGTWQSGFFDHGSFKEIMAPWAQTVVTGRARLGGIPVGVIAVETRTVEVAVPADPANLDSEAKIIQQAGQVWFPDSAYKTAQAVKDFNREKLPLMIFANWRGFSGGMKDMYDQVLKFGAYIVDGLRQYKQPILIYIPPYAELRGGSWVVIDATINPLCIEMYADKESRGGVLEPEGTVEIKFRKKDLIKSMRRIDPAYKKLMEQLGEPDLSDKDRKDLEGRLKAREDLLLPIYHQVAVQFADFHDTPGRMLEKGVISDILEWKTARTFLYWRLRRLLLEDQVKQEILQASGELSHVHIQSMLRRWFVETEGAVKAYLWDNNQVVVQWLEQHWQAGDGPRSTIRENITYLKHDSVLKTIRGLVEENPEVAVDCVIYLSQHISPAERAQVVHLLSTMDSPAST
Description: The detailed procedure is as follows. […] 10 μL ADP glo reagent was added. […] 20 μL kinase detection reagent was added.

[4] = test system: C. albicans; assay: Antifungal Activity Assay (broth microtiter MIC), C. albicans; format: cell-based, Candida albicans; conditions: 3 replicates, MIC recorded at 48 h; for MIC: Candida albicans, ATCC90028, 48 h, ATCC 90028, read-out: MIC, C. albicans ATCC 90028
Description: as §1, §2, §3

[5] = test system: C. krusei; assay: Antifungal Activity Assay (broth microtiter MIC), C. krusei; format: cell-based, Candida krusei; conditions: 3 replicates, MIC recorded at 48 h; for MIC: Pichia kudriavzevii, ATCC6258, 48 h, ATCC 6258, read-out: MIC, C. krusei ATCC 6258
Description: as §1, §2, §3

Row | Compound | MIC, C. parapsilosis ATCC 22019 ([1]; Table 3a) | MIC, C. parapsilosis ATCC 22019 ([1]; Table 3b (additional results)) | IC50 ([2]; Table 2a) [nM] | IC50 ([2]; Table 2b, additional results) [nM] | IC50 ([3]; Table 2a) [nM] | IC50 ([3]; Table 2b, additional results) [nM] | MIC, C. albicans ATCC 90028 ([4]; Table 3a) | MIC, C. albicans ATCC 90028 ([4]; Table 3b (additional results)) | MIC, C. krusei ATCC 6258 ([5]; Table 3a) | MIC, C. krusei ATCC 6258 ([5]; Table 3b (additional results)) | MIC ([1]; Table 3a) [mg/L] | MIC ([1]; Table 3b (additional results)) [mg/L] | MIC ([4]; Table 3a) [mg/L] | MIC ([4]; Table 3b (additional results)) [mg/L] | MIC ([5]; Table 3a) [mg/L] | MIC ([5]; Table 3b (additional results)) [mg/L]
1 | COCCO[C@@H](Cn1c(=O)n(C(C)(C)C(=O)NC2CCC2)c(=O)c2c(C)c(-n3nccn3)sc21)c1cc(F)ccc1OC [Compound I-102] | A (MIC of 0.25-1.0 μg/mL) | A (MIC of 0.25-1.0 μg/mL) | 1 to 5 | 1 to 5 | 1 to 5 | 1 to 5 | A (MIC of 0.25-1.0 μg/mL) | C (MIC of 2.01-4.0 μg/mL) | A (MIC of 0.25-1.0 μg/mL) | A (MIC of 0.25-1.0 μg/mL) |  |  |  |  |  | 
2 | COCCO[C@@H](Cn1c(=O)n(C(C)(C)C(=O)NC2CCCCC2)c(=O)c2c(C)c(-n3nccn3)sc21)c1cc(F)ccc1OC [Compound I-103] |  |  | 1 to 5 | 1 to 5 | 10 to 40 | 10 to 40 |  |  |  |  | 0.25 to 1 (≈ 0.389 to 1.56 µM) | 0.25 to 1 (≈ 0.389 to 1.56 µM) | 1.1 to 2 (≈ 1.71 to 3.11 µM) | 1.01 to 2 (≈ 1.57 to 3.11 µM) | 0.25 to 1 (≈ 0.389 to 1.56 µM) | 0.25 to 1 (≈ 0.389 to 1.56 µM)
3 | COc1ccc(F)cc1[C@H](Cn1c(=O)n(C(C)(C)C(=O)NC(C)C)c(=O)c2c(C)c(-n3nccn3)sc21)OCCC(C)=O [Compound I-104] |  |  | 1 to 5 | 1 to 5 | 1 to 5 | 1 to 5 |  |  |  |  | 0.25 to 1 (≈ 0.407 to 1.63 µM) | 0.25 to 1 (≈ 0.407 to 1.63 µM) | 0.25 to 1 (≈ 0.407 to 1.63 µM) | 0.25 to 1 (≈ 0.407 to 1.63 µM) | 0.06 to 0.24 (≈ 0.0976 to 0.39 µM) | 0.25 to 1 (≈ 0.407 to 1.63 µM)
4 | COc1ccc(F)cc1[C@H](Cn1c(=O)n(C(C)(C)C(=O)NC2CCC2)c(=O)c2c(C)c(-n3nccn3)sc21)OCCC(C)=O [Compound I-105] |  |  | 0.4 to 1 | 0.3 to 1 | 1 to 5 | 1 to 5 |  |  |  |  | 0.25 to 1 (≈ 0.399 to 1.6 µM) | 0.25 to 1 (≈ 0.399 to 1.6 µM) | 0.25 to 1 (≈ 0.399 to 1.6 µM) | 1.01 to 2 (≈ 1.61 to 3.19 µM) | 0.06 to 0.24 (≈ 0.0957 to 0.383 µM) | 0.25 to 1 (≈ 0.399 to 1.6 µM)
5 | COc1ccc(F)cc1[C@H](Cn1c(=O)n(C(C)(C)C(=O)NC2CCCCC2)c(=O)c2c(C)c(-n3nccn3)sc21)OCCC(C)=O [Compound I-106] |  |  | 1 to 5 | 1 to 5 | 5 to 10 | 5 to 10 |  |  |  |  | 0.25 to 1 (≈ 0.382 to 1.53 µM) | 0.25 to 1 (≈ 0.382 to 1.53 µM) | 1.1 to 2 (≈ 1.68 to 3.05 µM) | 1.01 to 2 (≈ 1.54 to 3.05 µM) | 0.25 to 1 (≈ 0.382 to 1.53 µM) | 0.25 to 1 (≈ 0.382 to 1.53 µM)
6 | Cc1c(-n2nccn2)sc2c1c(=O)n(C(C)(C)C(=O)NC(C)C)c(=O)n2C[C@H](OC1CCOCC1)c1cc(F)ccc1OCc1ccccc1 [Compound I-107] |  |  | 1 to 5 | 1 to 5 | 5 to 10 | 5 to 10 |  |  |  |  | 1.1 to 2 (≈ 1.56 to 2.84 µM) | 0.25 to 1 (≈ 0.355 to 1.42 µM) | 0.25 to 1 (≈ 0.355 to 1.42 µM) | 0.25 to 1 (≈ 0.355 to 1.42 µM) | 0.25 to 1 (≈ 0.355 to 1.42 µM) | 0.25 to 1 (≈ 0.355 to 1.42 µM)
7 | Cc1c(-n2nccn2)sc2c1c(=O)n(C(C)(C)C(=O)NC(C)C)c(=O)n2C[C@H](OC1CCOCC1)c1cc(F)ccc1OCC1COC1 [Compound I-108] |  |  | 1 to 5 | 1 to 5 | 1 to 5 | 1 to 5 |  |  |  |  | 0.25 to 1 (≈ 0.365 to 1.46 µM) | 0.25 to 1 (≈ 0.365 to 1.46 µM) | 0.25 to 1 (≈ 0.365 to 1.46 µM) | 0.25 to 1 (≈ 0.365 to 1.46 µM) | 0.25 to 1 (≈ 0.365 to 1.46 µM) | 0.25 to 1 (≈ 0.365 to 1.46 µM)
8 | COCCOc1ccc(F)cc1[C@H](Cn1c(=O)n(C(C)(C)C(=O)N2CCCC2)c(=O)c2c(C)c(-n3nccn3)sc21)OC1CCOCC1 [Compound I-109] |  |  | 1 to 5 | 1 to 5 | 1 to 5 | 1 to 5 |  |  |  |  | 0.25 to 1 (≈ 0.365 to 1.46 µM) | 1.01 to 2 (≈ 1.47 to 2.92 µM) | 0.25 to 1 (≈ 0.365 to 1.46 µM) | 0.25 to 1 (≈ 0.365 to 1.46 µM) | 0.25 to 1 (≈ 0.365 to 1.46 µM) | 1.01 to 2 (≈ 1.47 to 2.92 µM)
9 | Cc1c(-n2nccn2)sc2c1c(=O)n(C(C)(C)C(=O)N1CCCC1)c(=O)n2C[C@H](OC1CCOCC1)c1cc(F)ccc1OCC1COC1 [Compound I-110] |  |  | 1 to 5 | 1 to 5 | 5 to 10 | 5 to 10 |  |  |  |  | 0.25 to 1 (≈ 0.359 to 1.44 µM) | 1.01 to 2 (≈ 1.45 to 2.87 µM) | 0.25 to 1 (≈ 0.359 to 1.44 µM) | 0.25 to 1 (≈ 0.359 to 1.44 µM) | 0.25 to 1 (≈ 0.359 to 1.44 µM) | 1.01 to 2 (≈ 1.45 to 2.87 µM)

From US10800791B2, “Triazole ACC inhibitors and uses thereof” (Gilead Apollo, LLC, priority 2015, dated 2020)
